# Experimental data from US20050159312A1, “Tryptophan aminotransferase, indole-3-pyruvate decarboxylase and indole-3-acetaldehyde oxidase as novel targets for herbicides” (priority 2002, published 2005).
# Legend:
# [1] = system: indole-3-acetic acid (IEA) synthesis reaction; assay: Enzyme assay for inhibitors of indole-3-acetic acid (IEA, auxin) biosynthesis, enzyme extract from plant shoots; format: biochemical, Chenopodium album
# Experimental: To obtain the enzyme extract, 2 g of frozen plant shoots of Chenopodium album (common lambsquarters), which had been comminuted in a pestle and mortar under liquid nitrogen, were defrosted at room temperature in 3 ml of 100 mM EPPS extraction buffer (5 mM dithiothreitol, 6 μM pyridoxal phosphate, 10 μM leupeptin, 10 μM Pefabloc SC, pH 8.5) together with a spatula-tipfull of polyvinyl pyrrolidone in the course of 30 minutes with gentle stirring. Thereafter, the plant material was centrifuged for 10 minutes at 4° C. and the supernatant was desalinified on a Sephadex G-25 column (preequilibrated with 5 mM EPPS elution buffer (1 mM dithiothreitol, 6 μM pyridoxal phosphate, 10 μM Pefabloc SC, pH 8.5). The resulting enzyme extract (400 μl) was incubated in the test assay (volume 600 μl) for 2 hours at 37° C. in the presence of 20 μM pyridoxal phosphate, 80 mM EPPS extraction buffer, 50 μM L-tryptophan, 50 μM α-ketoglutarate and 50 μM indole with addition of 100 μl of EPPS extraction buffer and 6 μl of active ingredient solution (10 mM compound I in DMSO). The control without compound I was treated with the corresponding amount of DMSO. The reaction was subsequently stopped by addition of 20 μl 7.2N HCl and 3 ml of ethyl acetate. The control assays without incubation were placed on ice and immediately treated with HCl and ethyl acetate. After reextraction with 3 ml of ethyl acetate, the organic phases (6 ml) are combined and concentrated under a nitrogen stream, and the samples are methylated with diazomethane. […] Thereafter, the amount of IEA-Me was determined immunoanalytically by means of monoclonal antibodies (100% reactivity to IEA-Me); (method of Weiler E. W., Eberle J., Mertens R., Atzorn R., Feyerabend M., Jourdan P. S., Arnscheidt A., Wieczorek U., in: Immunology in Plant Science (Wang T. L., Ed.), Society for Experimental Biology, Seminar Series 29, Cambridge University Press, Cambridge, 1986, pp. 27-58) and used as measurement for the enzyme activities.
# Pharbitis purpurea = assay: Greenhouse herbicidal activity, post-emergence; format: in vivo; conditions: 1.0 kg a.s./ha
# Excerpt: (§1) The culture containers used were plastic pots comprising loamy sand with approximately 3.0% humus as substrate. The seeds of the test plants were sown separately for each species. For the post-emergence treatment, the test plants were first grown to a plant height of from 3 to 15 cm, depending on the plant habit, and only then treated with the active ingredients which had been suspended or emulsified in water. To this end, the test plants were either sown directly and grown in the same containers, or they were first grown separately as seedlings and transplanted into the test containers a few days prior to treatment. […] Depending on the species, the plants were kept at from 10-25° C. or 20-35° C., respectively. The test period extended over 2 to 4 weeks. During this time, the plants were attended, and their response to the individual treatments was evaluated. Evaluation was carried out using a scale of from 0 to 100. 100 means no emergence of the plants, or complete destruction of at least the aerial parts, while 0 means no damage, or normal course of growth. The plants used in the greenhouse experiments belong to the following species: [table]
# Echinocloa crus-galli = assay: Greenhouse herbicidal activity, post-emergence; format: in vivo; conditions: 1.0 kg a.s./ha
# Excerpt: as §1
# Chenopodium album = assay: Greenhouse herbicidal activity, post-emergence; format: in vivo; conditions: 1.0 kg a.s./ha
# Excerpt: as §1
compound,measurement,setting,value
CNC(=O)C(CNC(=O)c1ccccc1F)NC(=O)c1ccc(C(F)(F)F)cc1F (stereo not drawn) [compound I],pMol IEA-Me/g fresh shoot weight,"[1]; 100 μM compound I, incubation 2 hours at 37° C., mean from three measurements",156.0 +/− 14.8 pMol IEA-Me/g fresh shoot weight
same,Inhibition [%],"[1]; 100 μM compound I, incubation 2 hours at 37° C., control value without incubation subtracted",73%
same,synthesis of indole-3-acetic acid from L-tryptophan,[1]; in vitro,inhibited
same,herbicidal efficiency,Pharbitis purpurea,very good herbicidal efficiency
same,herbicidal efficiency,Echinocloa crus-galli,very good herbicidal efficiency
same,herbicidal efficiency,Chenopodium album,very good herbicidal efficiency
